Data as given in patent US8883841B2, “Oncogenic ras-specific cytotoxic compound and methods of use thereof” (The Board of Regents of the University of Texas System, priority 2005, dated 2014).
Read-outs that look alike come from different tables or passages of the source.

Key:
SKOV3 = assay: Cell viability, SKOV3 ovary cancer cells; type: cell-based
LOX IMVI = assay: NCI in-vitro testing, LOX IMVI (Melanoma); settings: for GI50 / CC50: Homo sapiens; for CC50: read-out: LC50
HCT-15 = assay: NCI in-vitro testing, HCT-15 (Colon Cancer); settings: for GI50 / CC50: Homo sapiens; for CC50: HCT-15, read-out: LC50
[1] = system: panel of 60 cancer cell lines; assay: NCI Developmental Therapeutics Program in-vitro testing, panel of 60 cancer cell lines (whole panel); type: cell-based; settings: for anticancer spectrum in NCI panel: leukemia, non small lung, colon, melanoma, ovarian, renal, breast
SW-620 = assay: NCI in-vitro testing, SW-620 (Colon Cancer); settings: for GI50 / CC50: Homo sapiens; for CC50: SW-620, read-out: LC50
CAKI-1 = assay: NCI in-vitro testing, CAKI-1 (Renal Cancer); settings: for Percent Growth: CAK1-1; for GI50 / CC50: Homo sapiens; for CC50: CAKI-1, read-out: LC50
H460 tumors = assay: In vivo antitumor activity, subcutaneous H460 tumors in nude mice; settings: for suppression of growth of tumor volume in comparison with solvent / mean survival: 100 mg/kg/injection daily i.p.; for suppression of growth of tumor volume in comparison with solvent: Oncrasin-1 10 days, Oncrasin-27 3 days; for mean survival: solvent 24 days; for mean tumor volume vs solvent-treated mice: p<0.05, 5 mice per group
Procedure: The inventors have investigated the in vivo antitumor activity of Oncrasin compounds, such as Oncrasin-1 and Oncrasin-27, both are available at relatively larger scale. Subcutaneous tumors were established in 4- to 6-week-old female nude mice (Charles River Laboratories Inc., Wilmington, Mass.) by the inoculation of 1.5×10^6 H460 cells into the dorsal flank of each mouse. After the tumors grew to 5 mm in diameter, mice were treated with intraperitoneal injections of Oncrasin-1 (for 10 days) or Oncrasin-27 (for 3 days, because of limited availability of the compound) at a dose of 100 mg/kg/injection daily (the agents were dissolved in 0.5 mL of solvent containing 10% DMSO, 10% Cremophor EL, and 10% ethanol), or they were given intraperitoneal injections of solvent alone. The tumor volumes were calculated using the formula a×b^2×0.5, where a and b represent the larger and smaller diameters, respectively (Gu et al., 2000; Terashi et al., 2005). Mice were killed when the tumors grew to 1.5 cm in diameter. To evaluate the toxicity of treatment, blood samples were collected from the tail vein before treatment and 2 days after the last treatment, and serum alanine transaminase, aspartate transaminase, and creatinine levels were determined as described elsewhere (Gu et al., 2000; Terashi et al., 2005). Hematopoietic toxicity was monitored by counting red blood cells, white blood cells, and platelets (Gu et al., 2002; Terashi et al., 2005). The lung, heart, liver, intestine, spleen, and kidney were harvested after the mice were killed to test the toxic effects of both compounds on these organs. The histopathologic analysis was performed in the histology laboratory of the Department of Veterinary Medicine and Surgery at M. D. Anderson Cancer Center. […] The mean survivals for mice treated with solvent, Oncrasin-1, and Oncrasin-27 were 24, 32, and 34 days, respectively.

Akt = assay: Western blot analysis of Akt; type: cell-based, human; settings: 1 μM, 12 h
Procedure: (§1) Ras Signaling Pathway and Molecular Mechanisms of Oncrasin-induced apoptosis. To investigate molecular mechanisms of apoptosis induction by Oncrasin compounds, levels several proteins that are involved in apoptosis and/or involved in Ras signaling pathways were determined, including Bax, Bik, Bc12, Bcl-XL, Raf-1, B-Raf, Akt, Mst1 and atypical protein kinase C (aPKC) zeta and PKCiota. To study which molecules are affected by Oncrasin treatment, T29, T29Kt1 and H460 cells were treated with Oncrasin-1 at an optimal concentration, around IC60 to IC80 for T29Kt1 and H460 cells. Cell lysates were collected 12 h after the treatment and subjected to Western blot analysis.

PKCiota = assay: Immunohistochemical staining, subcellular localization of PKCiota; type: cell-based, human
Procedure: Effects on subcellular localization of PKCiota. […] To further investigate molecular mechanisms of Oncrasin action the inventors studied the subcellular localization of several molecules involved in Ras-signaling pathway because the functions of Ras and other proteins are directly related to their subcellular localizations. For this purpose, T29Kt1 or H460 cells were seeded on cover glass slides and treated with DMSO or Oncrasin-1 for 12 h. Cells were then fixed with paraformaldehyde, permeabilized with Triton X-100 and stained with various antibodies for immunohistochemical examination. […] Nevertheless, substantial subcellular localization change was detected for PKCiota after Oncrasin-1 treatment (FIG. 6). In both H460 and T29Kt1 cells, both PKCiota and PKCzeta were diffusely distributed in cells with high concentration on cell membrane in nucleus, consisting with previous reports that aPKC contains both nuclear localization signal (NLS) and nuclear export signal (NES), and can shuttle between cytoplasm and nucleus, which was regulated by intramolecular conformational changes, phosphorylation or by treatment with growth factors (Perander et al., 2001; White et al., 2002; Neri et al., 1999). […] Such aggregation of PKCiota was not observed in Oncrasin-resistant T29 and H1299 cells. The inventors then tested whether PKCiota aggregation in the nucleus can be induced by other chemotherapeutic agents such as 5-fluorouracil (5-FU) and paclitaxol.

[2] = system: Bax, Bik, Bcl-2, Bcl-XL, Mst1, B-Raf, PKCzeta and PKCiota; assay: Western blot analysis of apoptosis/Ras signaling proteins; type: cell-based, human; settings: T29, T29Kt1 and H460 cells, 12 h
Procedure: as §1

[3] = HCT-15, Log10 Concentration −4.0 Molar
[4] = HCT-15, Log10 Concentration −5.0 Molar
[5] = HCT-15, Log10 Concentration −6.0 Molar
[6] = HCT-15, Log10 Concentration −7.0 Molar
[7] = HCT-15, Log10 Concentration −8.0 Molar
[8] = SW-620, Log10 Concentration −4.0 Molar
[9] = SW-620, Log10 Concentration −5.0 Molar
[10] = SW-620, Log10 Concentration −6.0 Molar
[11] = SW-620, Log10 Concentration −7.0 Molar
[12] = SW-620, Log10 Concentration −8.0 Molar

In the case of `OCc1cn(Cc2ccc(Cl)cc2)c2ccccc12` [Oncrasin K060, 1H-Indole-3-methanol, 1-[(4-chlorophenyl)methyl]-], the IC50 (SKOV3; Homo sapiens, SK-OV-3) is reported as 631 nM, the TGI (LOX IMVI) is reported as 1.58E−6 Molar and the GI50 (LOX IMVI) is reported as 4480 nM. For the same molecule, the CC50 (LOX IMVI) was 47200 nM, the GI50 (LOX IMVI; read-out: Log10 GI50 (converted)) was 4470 nM and the “Percent Growth” value (LOX IMVI; Log10 Concentration −4.0 Molar) was −86%. For the same molecule, the “Percent Growth” value (LOX IMVI; Log10 Concentration −5.0 Molar) was 26%, the “Percent Growth” value (LOX IMVI; Log10 Concentration −6.0 Molar) was 96% and the “Percent Growth” value (LOX IMVI; Log10 Concentration −7.0 Molar) was 96%. For the same molecule, the “Percent Growth” value (LOX IMVI; Log10 Concentration −8.0 Molar) was 102%, the TGI (HCT-15; HCT-15) was 2.58E−5 Molar and the “Percent Growth” value (HCT-15; [3]) was −31%. For the same molecule, the “Percent Growth” value (HCT-15; [4]) was 21%, the “Percent Growth” value (HCT-15; [5]) was 69% and the “Percent Growth” value (HCT-15; [6]) was 90%. The “Percent Growth” value (HCT-15; [7]) was 99%, the GI50 (HCT-15; HCT-15) was 2520 nM and the CC50 (HCT-15) was > 100000 nM. For the same molecule, the GI50 (HCT-15; HCT-15, read-out: Log10 GI50 (converted)) was 2510 nM, the “anticancer spectrum in NCI panel” value [1] was “active in a number of cancer cell lines” and the GI50 ([1]; of 54 cancer cell lines tested, read-out: medium 50% growth inhibition (GI50) concentration) was 1120 nM. For the same molecule, the GI50 (SW-620; SW-620) was 571 nM, the CC50 (SW-620) was > 100000 nM and the GI50 (SW-620; SW-620, read-out: Log10 GI50 (converted)) was 575 nM. The TGI (SW-620; SW-620) was 1.80E−5 Molar, the “Percent Growth” value (SW-620; [8]) was −46% and the “Percent Growth” value (SW-620; [9]) was 16%. The “Percent Growth” value (SW-620; [10]) was 39%, the “Percent Growth” value (SW-620; [11]) was 83% and the “Percent Growth” value (SW-620; [12]) was 94%. The “Percent Growth” value (CAKI-1; Log10 Concentration −4.0 Molar) was 1%, the “Percent Growth” value (CAKI-1; Log10 Concentration −5.0 Molar) was −47% and the “Percent Growth” value (CAKI-1; Log10 Concentration −6.0 Molar) was −21%. For the same molecule, the “Percent Growth” value (CAKI-1; Log10 Concentration −7.0 Molar) was −3%, the “Percent Growth” value (CAKI-1; Log10 Concentration −8.0 Molar) was 1% and the GI50 (CAKI-1; CAKI-1) was < 10 nM. For the same molecule, the CC50 (CAKI-1) was > 100000 nM and the GI50 (CAKI-1; CAKI-1, read-out: Log10 GI50 (converted)) was < 10 nM.

`O=Cc1cn(Cc2cccc(Cl)c2)c2ccccc12` [Oncrasin K027, 1-(3-chlorobenzyl)-1H-indole-3-carbaldehyde] was tested, and the TGI (LOX IMVI) was 1.68E−5 Molar, the GI50 (LOX IMVI) was 44.8 nM and the CC50 (LOX IMVI) was 47200 nM. The “Percent Growth” value (LOX IMVI; Log10 Concentration −4.0 Molar) was −86%, the “Percent Growth” value (LOX IMVI; Log10 Concentration −5.0 Molar) was 25% and the “Percent Growth” value (LOX IMVI; Log10 Concentration −6.0 Molar) was 96%. The “Percent Growth” value (LOX IMVI; Log10 Concentration −7.0 Molar) was 95%, the “Percent Growth” value (LOX IMVI; Log10 Concentration −8.0 Molar) was 102% and the “suppression of growth of tumor volume in comparison with solvent” value (H460 tumors) was 76.3%. The mean survival (H460 tumors) was 34 days, the “mean tumor volume vs solvent-treated mice” value (H460 tumors) was “differed significantly” and the TGI (HCT-15; HCT-15) was 2.58E−6 Molar. The “Percent Growth” value (HCT-15; [3]) was −31%, the “Percent Growth” value (HCT-15; [4]) was 21% and the “Percent Growth” value (HCT-15; [5]) was 69%. The “Percent Growth” value (HCT-15; [6]) was 90%, the “Percent Growth” value (HCT-15; [7]) was 99% and the GI50 (HCT-15; HCT-15) was 25.2 nM. The CC50 (HCT-15) was > 100000 nM, the “anticancer spectrum in NCI panel” value [1] was “active in a number of cancer cell lines” and the GI50 (SW-620; SW-620) was 571 nM. The CC50 (SW-620) was > 100000 nM, the TGI (SW-620; SW-620) was 1.80E−5 Molar and the “Percent Growth” value (SW-620; [8]) was −46%. The “Percent Growth” value (SW-620; [9]) was 16%, the “Percent Growth” value (SW-620; [10]) was 39% and the “Percent Growth” value (SW-620; [11]) was 83%. The “Percent Growth” value (SW-620; [12]) was 84%, the “Percent Growth” value (CAKI-1; Log10 Concentration −4.0 Molar) was 1% and the “Percent Growth” value (CAKI-1; Log10 Concentration −5.0 Molar) was −47%. The “Percent Growth” value (CAKI-1; Log10 Concentration −6.0 Molar) was −21%, the “Percent Growth” value (CAKI-1; Log10 Concentration −7.0 Molar) was −3% and the “Percent Growth” value (CAKI-1; Log10 Concentration −8.0 Molar) was 1%. For the same molecule, the GI50 (CAKI-1; CAKI-1) was < 10 nM and the CC50 (CAKI-1) was > 100000 nM.

For `O=Cc1cn(Cc2ccc(Cl)cc2)c2ccccc12` [Oncrasin K001, 1H-Indole-3-carboxaldehyde, 1-[(4-chlorophenyl)methyl]-(9CI)], the “Akt level in H460 cells” value (Akt) was “down regulation”, the “IC50 (−LogM)” value (SKOV3) was 5.8 −LogM and the “suppression of growth of tumor volume in comparison with solvent” value (H460 tumors) was 75.4%. For the same molecule, the mean survival (H460 tumors) was 32 days, the “mean tumor volume vs solvent-treated mice” value (H460 tumors) was “differed significantly” and the “PKCiota aggregation in the nucleus, H460 cells” value (PKCiota; 12 h) was “aggregation of PKCiota into large foci in nucleus”. The “PKCiota aggregation in the nucleus, T29Kt1 cells” value (PKCiota; 12 h, comparators at doses giving similar cell killing) was “aggregation of PKCiota into large foci in nucleus”, the “PKCiota aggregation, T29 and H1299 cells” value (PKCiota; Oncrasin-resistant cells) was “not observed” and the “levels of Bax, Bik, Bcl-2, Bcl-XL, Mst1, B-Raf, PKCzeta and PKCiota” value [2] was “did not result in noticeable changes”.
